From patent US11845774B2, “Sterol derivatives and preparation method and uses thereof” (BEIJING PEKING UNIVERSITY WBL BIOTECH CO., LTD., priority 2011, dated 2023)

Molecular target: T1, HMG-CoA reductase (rat liver microsomes) (Rattus norvegicus, UniProt P51639)
T1 construct: taking out liver of male rat, washing with KESD buffer solution; from tissue; host or cells: liver of male rat (microsomal fraction, glycerol/37 °C treatment, 35-50% ammonium sulfate fraction)
T1 sequence (P51639 1-887): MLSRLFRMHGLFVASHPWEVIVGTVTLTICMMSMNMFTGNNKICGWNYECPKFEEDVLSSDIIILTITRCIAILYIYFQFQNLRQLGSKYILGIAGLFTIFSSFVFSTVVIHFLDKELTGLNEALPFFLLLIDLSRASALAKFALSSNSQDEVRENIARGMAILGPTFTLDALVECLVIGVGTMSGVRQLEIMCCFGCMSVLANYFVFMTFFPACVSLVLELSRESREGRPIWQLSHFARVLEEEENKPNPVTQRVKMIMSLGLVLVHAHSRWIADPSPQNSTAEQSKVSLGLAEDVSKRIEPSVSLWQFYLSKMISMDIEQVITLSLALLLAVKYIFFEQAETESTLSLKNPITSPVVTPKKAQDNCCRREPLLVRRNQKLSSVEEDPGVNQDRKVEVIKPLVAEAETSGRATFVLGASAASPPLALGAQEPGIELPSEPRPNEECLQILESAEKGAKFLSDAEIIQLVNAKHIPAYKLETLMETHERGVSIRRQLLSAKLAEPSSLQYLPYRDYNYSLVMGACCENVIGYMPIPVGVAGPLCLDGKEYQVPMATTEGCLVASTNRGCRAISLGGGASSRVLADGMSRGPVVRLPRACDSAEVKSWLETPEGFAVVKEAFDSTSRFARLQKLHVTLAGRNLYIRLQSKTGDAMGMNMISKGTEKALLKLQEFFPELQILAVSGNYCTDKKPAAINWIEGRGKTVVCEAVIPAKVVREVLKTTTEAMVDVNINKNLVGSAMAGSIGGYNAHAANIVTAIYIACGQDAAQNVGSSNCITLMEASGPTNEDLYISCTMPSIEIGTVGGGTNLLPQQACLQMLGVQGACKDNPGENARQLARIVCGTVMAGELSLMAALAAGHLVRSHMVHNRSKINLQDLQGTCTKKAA
Assay: Test of activity of inhibiting HMG-CoA reductase (rate of decline of OD340)
Format: biochemical
Conditions: for Slope (rate of decline of OD340): blank control slope 16.0
Method: Rat liver microsomes (HMG-CoA reductase), could be commercially available or prepared by the following preparation method: taking out liver of male rat, washing with KESD buffer solution, centrifuging under 1200 g for 15 minutes, collecting supernatant, then centrifuging under 105,000 g twice, 90 minutes for each time, and collecting centrifugation deposit. The centrifugation deposit was added with 8.3% of glycerol, heated with 37° C. bath for 1 hour. The crude product of rat liver microsomes was purified with saturated ammonium sulfate, and 35-50% of purified fraction was collected. The purified fraction obtained could be stored in −80° C. refrigerator.
Compound of Formula II was dissolved in 75% ethanol solution, with initial concentration of 8.0 mg/mL, and diluted in gradient manner, to reach 4.0 mg/mL, 2.0 mg/mL, 1.0 mg/mL; lovastatin was used as positive control, dissolved with 75% ethanol solution to reach concentration of 2.0 mg/mL; in the test system, total volume was 250 μL, concentrations of ingredients were separately: potassium chloride 200 mM, potassium dihydrogen phosphate 160 mM, ethylenediamine tetraacetic acid 4 mM, dithiothreitol 10 mM, […] and 3-hydroxy-3-methylglutary coenzyme A as two substrates separately had concentrations of: 200 μM and 50 μM, pH6.8, 30 μL of enzyme was added, 4 test groups were separately added with 10 μL of new compound solutions with different concentrations, the positive control group was added with 10 μL of lovastatin solution, the blank control group was added with 10 μL of 75% ethanol solution, and dynamitic changes of OD340 were detected with Versamax ELISA at 37° C. condition. The rate of decline of OD340 (expressed in slope value) as detected within 5 minutes was used to evaluate the activity of HMG-CoA reductase, and then to evaluate the activity of enzyme inhibitor and the results were shown in Table 2.

[1] = final concentration in system 40 μg/mL
[2] = final concentration in system 80 μg/mL
[3] = final concentration in system 160 μg/mL
[4] = final concentration in system 320 μg/mL

C[C@@H](C(O)C1OC2C[C@H]3C4=CC=C5CC(O)CC[C@]5(C)[C@H]4CC[C@]3(C)[C@H]2[C@@]1(C)O)C(C)(C)O (stereo partly drawn) [Compound of Formula II, 16,22-epoxy-ergosta-5,7-dien-3,20,23,25-tetraol]
Inhibition rate [1]: 14.4% | Slope (rate of decline of OD340) [1]: 13.7 | Inhibition rate [2]: 29.4% | Slope (rate of decline of OD340) [2]: 11.3 | Inhibition rate [3]: 45.6% | Slope (rate of decline of OD340) [3]: 8.7 | Inhibition rate [4]: 53.1% | Slope (rate of decline of OD340) [4]: 7.5 | IC50 (read-out: IC50 value, inhibition of activity of HMG-CoA reductase (converted)): ~543 µM
